One assay has as its system NMDA-induced death. Nature of the assay: NMDA test (25 mg/kg i.v.), prevention of NMDA-induced death (neuroprotective efficacy). The class given is in vivo, male NMRI mice. Particulars: Mus musculus, po, NMDA 25 mg/kg i.v.; for responders at 100 mg/kg: 100 mg/kg p.o. 1 h before test; for responders at 100 mg/kg / responders at 25 mg/kg / responders at 5 mg/kg: read-out: Protective action (percentage of surviving animals); for ED50: 1 h, dose protecting 50% of animals against NMDA-induced death one hour after application; for responders at 25 mg/kg: 25 mg/kg p.o. 1 h before test; for responders at 5 mg/kg: 5 mg/kg p.o. 1 h before test. The method, then: In order to determine the neuroprotective and anticonvulsive activity of the compounds in accordance with the invention of the general formula I, two slightly different methods were employed as follows: […]
1. In order to determine the neuroprotective efficacy NMDA at a rate of 25 mg/kg/10 ml was administered intravenously to male NMRI mice with a body weight of 20 to 25 g. As a consequence of this application the animals suffer clonic and partly tonic convulsions, which lead to death. As a criterion for the efficacy of the investigated compounds prevention of death is used.
All animals used in the investigations had free access to food and water prior to the experiments. The test and reference substances were all administered as a suspension in 0.2% agar or water, partly by the intermediary of solution promoters such as for instance PEG-400, perorally using an esophageal probe. Control animals received the same volumes of the solvent with optional solution promoters. One hour after the application of the substance NMDA was administered intravenously and the animals observed for the occurrence of convulsions.
In table 1 the results of the tests (NMDA 25 mg i.v.) performed in accordance with method 1 are compiled with dosages of 5-100 mg of the compounds in accordance with the invention per kg of body weight as compared with known NMDA-antagonists. As a percentage efficacy the percentage of surviving animals is used.
The determination of the ED50 values was performed in accordance with the method described in Lichtfield and Wilcoxon, J. Pharmacol. exp. Therapeut. 96, 99 (1949) in each case with 4 to 5 groups of 10 animals per dosage rate.

Assay [1] relates to ovalbumin-induced anaphylactic paw edema. Briefly: Passive rat paw anaphylaxy (inhibition of edema volume; antiallergic and anti-inflammatory). The class given is in vivo, male Sprague-Dawley rats. As to conditions: for inhibition in vivo at 25 mg/kg: 25 mg/kg p.o. 1 h before test; for inhibition in vivo at 30 mg/kg: 30 mg/kg p.o. 1 h before test. The method, then: The determination of the antiallergic and anti-inflammatory properties of the compounds in accordance with the invention was using a passive rat paw anaphylaxy model.
Male Sprague-Dawley rats were utilized for all tests. The animals were kept under standardized environmental conditions with free access to food and water. For sensitization to the antigen 100 μl of a mouse antiserum to ovalbumin was injected sublplantarly into the left rear paw. […] The opposite paw was for control injected subplantarly only with 100 μl of the solvent (sterile physiological NaCl solution). Overnight the investigated animals were deprived of food but had water ad lib.
Per group in all tests between 6 and 8 animals were used. One hour later the anaphylactic reaction was caused by the intravenous injection of 10 mg/10 ml/kg ovalbumin in physiological NaCl solution. […] The edema volume was calculated from the difference between the values of the two paws. The antiallergic action is in this case expressed as a percentage inhibition of the edema volume of the animals in the test group as compared with control groups undergoing parallel investigation. […] The determination of the ED50 values was performed by linear regression after log transformation of the administered doses, at least three dosage rates being employed.

[2] abbreviates: Rattus norvegicus, po, read-out: Protective action (percentage inhibition of edema volume).
Where [3] appears, read: Rattus norvegicus, po, p.o. 1 h before test, linear regression after log transformation of doses.

Structures are written as SMILES.

In general, ED50 refers to the dose at which the effect has come halfway, by size or by number of responders. Lower therefore signals an effect at a small dose.

Regarding `COc1cc2oc(=O)ccc2cc1OCCCN1CCC(C(c2ccccc2)c2ccccc2)CC1` [Example 16, 6-{3-[4-(diphenylmethyl)-1-piperidinyl]propoxy}-7-methoxy-2H-1-benzopyran-2-one], the responders at 100 mg/kg in the assay on NMDA-induced death was 75%. In assay [1] (setting [2]), the inhibition in vivo at 25 mg/kg amounted to 60%.

`COc1ccc(CCN2CCC(Nc3nc4ccccc4n3Cc3ccc(F)cc3)CC2)cc1` [astemizole, reference compound]: the inhibition in vivo at 10 mg/kg in assay [1] (Rattus norvegicus, po, 10 mg/kg p.o. 1 h before test, read-out: Protective action (percentage inhibition of edema volume)) is 70%. In assay [1] (setting [3]), this molecule yielded an ED50 of 3.1 mg/kg.

`COc1cc2oc(=O)c3c(c2cc1OCCCN1CCN(c2ccccc2)CC1)CCC3` [Example 45, 2,3-dihydro-7-methoxy-8-[3-(4-phenyl-1-piperazinyl)propoxy]cyclopenta[c][1]benzopyran-4(1H)-one]: in the assay with NMDA-induced death, the ED50 was 1.2 mg/kg and the responders at 25 mg/kg was found to be 100%. Also, the inhibition in vivo at 25 mg/kg in assay [1] (setting [2]) was found to be 69%.

For the molecule `CN1CCC(=C2c3ccccc3CC(=O)c3sccc32)CC1` [ketotifen, reference compound], in assay [1] (setting [2]), the inhibition in vivo at 30 mg/kg worked out at 77%. For the same molecule, in assay [1] (setting [3]), the 50% effect level (ED50) was put at a dose of 5.6 mg/kg.

`COc1cc2oc(=O)cc(C)c2cc1OCCCN1CCN(c2ccccc2)CC1` [Example 26, 7-methoxy-4-methyl-6-[3-(4-phenyl-1-piperazinyl)propoxy]-2H-1-benzopyran-2-one]: in the assay with NMDA-induced death, the responders at 25 mg/kg came to 62.5%. Also, the inhibition in vivo at 25 mg/kg in assay [1] (setting [2]) was found to be 66%.

`COc1cc2oc(=O)cc(C)c2cc1OCCCN1CCC(c2ccccc2)CC1` [Example 27, 7-methoxy-4-methyl-6-[3-(4-phenyl-1-piperidinyl)propoxy]-2H-1-benzopyran-2-one]: the responders at 25 mg/kg in the assay with NMDA-induced death stood at 50%. The inhibition in vivo at 25 mg/kg in assay [1] (setting [2]) is 40%.

Turning to `COc1cc2oc(=O)cc(-c3ccccc3)c2cc1OCCCN1CCN(c2ccccc2)CC1` [Example 39, 7-methoxy-4-phenyl-6-[3-(4-phenyl-1-piperazinyl)propoxy]-2H-1-benzopyran-2-one], the responders at 25 mg/kg in the assay with NMDA-induced death was found to be 62.5%. Also, the inhibition in vivo at 25 mg/kg in assay [1] (setting [2]) was determined as 26%.

Turning to `O=C(O)c1cc(=O)c2c(OCC(O)COc3cccc4oc(C(=O)O)cc(=O)c34)cccc2o1` [cromoglycate, reference compound], the inhibition in vivo at 2.25 mg/kg in assay [1] (Rattus norvegicus, 2.25 mg/kg, intravenous immediately prior to test, read-out: Protective action (percentage inhibition of edema volume)) worked out at 58%. The same molecule yielded an ED50 in assay [1] (Rattus norvegicus, intravenous treatment immediately prior to test (footnote), head says p.o.) of 1.1 mg/kg. Also, the oral effectiveness result in assay [1] (oral) was “orally not effective”.

As to `Cc1c(C)c2ccc(OCCCN3CCN(Cc4ccc(Cl)cc4)CC3)cc2oc1=O` [picumast, reference compound], the inhibition in vivo at 25 mg/kg in assay [1] (setting [2]) is -21%.

In the case of `COc1cc2ccc(=O)oc2cc1OCCCN1CCN(C(c2ccc(F)cc2)c2ccc(F)cc2)CC1` [Example 8, 7-{3-[4-(bis(4-fluorophenyl)methyl)-1-piperazinyl]propoxy}-6-methoxy-2H-1-benzopyran-2-one], the responders at 100 mg/kg with NMDA-induced death turned out to be 62.5%. Besides, the inhibition in vivo at 25 mg/kg in assay [1] (setting [2]) was determined as 35%.

For `COc1cc2oc(=O)ccc2cc1OCCCN1CCC(=C(c2ccc(F)cc2)c2ccc(F)cc2)CC1` [Example 15, 6-{3-[4-(bis(4-fluorophenyl)methylene)-1-piperidinyl]propoxy}-7-methoxy-2H-1-benzopyran-2-one], the responders at 25 mg/kg in the assay with NMDA-induced death was 50%. For the same molecule, the inhibition in vivo at 25 mg/kg in assay [1] (setting [2]) worked out at 60%.

With `COc1cc2oc(=O)c(C)c(C)c2cc1OCCCN1CCN(c2ccccc2)CC1` [Example 28, 7-methoxy-3,4-dimethyl-6-[3-(4-phenyl-1-piperazinyl)propoxy]-2H-1-benzopyran-2-one], the responders at 25 mg/kg with NMDA-induced death turned out to be 87.5%. Besides, the inhibition in vivo at 25 mg/kg in assay [1] (setting [2]) was found to be 72%.

In the case of `COc1cc2oc(=O)cc(-c3ccccc3)c2cc1OCCCN1CCC(c2ccccc2)CC1` [Example 40, 7-methoxy-4-phenyl-6-[3-(4-phenyl-1-piperidinyl)propoxy]-2H-1-benzopyran-2-one], the responders at 100 mg/kg in the assay on NMDA-induced death is 37.5%. Also, the inhibition in vivo at 25 mg/kg in assay [1] (setting [2]) was 27%.

For `CC(C)Oc1cc2ccc(=O)oc2cc1OCCCN1CCC(c2ccccc2)CC1` [Example 12, 6-(1-methylethoxy)-7-[3-(4-phenyl-1-piperidinyl)propoxy]-2H-1-benzopyran-2-one], the responders at 25 mg/kg with NMDA-induced death was determined as 62.5%. Further, the inhibition in vivo at 25 mg/kg in assay [1] (setting [2]) was 12%.

In the case of `COc1cc2oc(=O)ccc2cc1OCC(O)CN1CCC(C(O)(c2ccc(F)cc2)c2ccc(F)cc2)CC1` (racemic) [Example 25, (±)-6-{3-[4-(bis(4-fluorophenyl)hydroxymethyl)-1-piperidinyl]-2-hydroxypropoxy}-7-methoxy-2H-1-benzopyran-2-one], in the assay on NMDA-induced death, it took a dose of 77 mg/kg to reach the 50% effect level (ED50) and the responders at 100 mg/kg was 100%. In addition, the inhibition in vivo at 25 mg/kg in assay [1] (setting [2]) turned out to be 43%.

Take `COc1cc2oc(=O)c3c(c2cc1OCCCCN1CCN(c2ccccc2)CC1)CCC3` [Example 46, 2,3-dihydro-7-methoxy-8-[4-(4-phenyl-1-piperazinyl)butyloxy]cyclopenta[c][1]benzopyran-4(1H)-one]: in the assay on NMDA-induced death, the ED50 was 3.9 mg/kg and the responders at 25 mg/kg was 100%. The inhibition in vivo at 25 mg/kg in assay [1] (setting [2]) amounted to 35%.

`O=c1[nH]c2ccccc2n1CCCN1CCN(C(c2ccccc2)c2ccccc2)CC1` [oxatomide, reference compound]: the inhibition in vivo at 30 mg/kg in assay [1] (setting [2]) worked out at 75%. Moreover, it took a dose of 7.3 mg/kg to reach the 50% effect level in assay [1] (setting [3]) (ED50).

With `COc1cc2ccc(=O)oc2cc1OCCCN1CCC(C(O)(c2ccccc2)c2ccccc2)CC1` [Example 17, 7-{3-[4-(diphenylhydroxymethyl)-1-piperidinyl]-propoxy}-6-methoxy-2H-1-benzopyran-2-one], the responders at 100 mg/kg in the assay on NMDA-induced death was found to be 37.5%. In addition, the inhibition in vivo at 25 mg/kg in assay [1] (setting [2]) is 83%.

Regarding `COc1cc2oc(=O)c3c(c2cc1OCCCN1CCN(c2ccc(F)cc2)CC1)CCC3` [Example 52, 8-{3-[4-(4-fluorophenyl)-1-piperazinyl]propoxy}-2,3-dihydro-7-methoxy-cyclopenta[c][1]benzopyran-4(1H)-one], in the assay on NMDA-induced death, the ED50 was 1.2 mg/kg and the responders at 25 mg/kg is 100%. Also, in assay [1] (setting [2]), the inhibition in vivo at 25 mg/kg was found to be 74%.

As to `COc1cc2oc(=O)c3c(c2cc1OCCCN1CCN(c2ccccc2)CC1)CCCC3` [Example 42, 7,8,9,10-tetrahydro-3-methoxy-2-[3-(4-phenyl-1-piperazinyl)propoxy]-6H-dibenzo[b,d]pyran-6-one], the responders at 25 mg/kg in the assay on NMDA-induced death was 100%. The inhibition in vivo at 25 mg/kg in assay [1] (setting [2]) was determined as 39%.

For the molecule `CN(C)CCOC(c1ccccc1)c1ccccc1` [diphenhydramine, reference compound], the inhibition in vivo at 100 mg/kg in assay [1] (Rattus norvegicus, po, 100 mg/kg p.o. 1 h before test, read-out: Protective action (percentage inhibition of edema volume)) came to 54%. The same molecule gave an ED50 in assay [1] (setting [3]) of 73 mg/kg.

`COc1cc2oc(=O)c3c(c2cc1OCCCN1CCN(c2ccccc2O)CC1)CCC3` [Example 60, 2,3-dihydro-8-{3-[4-(2-hydroxyphenyl)-1-piperazinyl]propoxy}-7-methoxy-cyclopenta[c][1]benzopyran-4(1H)-one]: the responders at 5 mg/kg in the assay on NMDA-induced death was determined as 62.5%.

As for `COc1cc2oc(=O)c3c(c2cc1OCCN1CCC(c2ccccc2)CC1)CCC3` [Example 48, 2,3-dihydro-7-methoxy-8-[2-(4-phenyl-1-piperidinyl)ethoxy]cyclopenta[c][1]benzopyran-4(1H)-one], in the assay on NMDA-induced death, the 50% effect level (ED50) was put at a dose of 4 mg/kg and the responders at 5 mg/kg is 100%. The inhibition in vivo at 25 mg/kg in assay [1] (setting [2]) came out at 35%.

Take `COc1cc2oc(=O)cc(C(F)(F)F)c2cc1OCCCN1CCN(c2ccccc2)CC1` [Example 31]: the responders at 25 mg/kg in the assay with NMDA-induced death was found to be 87.5%.
